Patent US8911717B2, “Polymalic acid-based multifunctional drug delivery system” (Cedars-Sinai Medical Center, priority 2003, dated 2014)

Tests used:
[1] = test system: protein kinase CK2 α chain; test: Western blot of CK2 expression in cell lysates; format: cell-based, human; conditions: U251MG glioma cells treated for 3 days; compared to untreated control or EPEI-treated control
Procedure: The protein kinase CK2 complex is a tetramer comprised of catalytic α, α′ subunits and regulatory […] subunits that form complexes such as α2β2, αα′β2 and α′2β2. To achieve downregulation of CK2, the antisense oligonucleotides against the CK2 catalytic subunit a were conjugated to PMLA. Morpholino™-NH2 antisense oligonucleotides to the protein kinase CK2 catalytical domain a chain purchased from Gene Tools (USA) were as follows:
Inhibition of CK2 expression in vitro was assessed in the cell lysates of cultured glioma cell line U251MG treated for 3 days with nanoconjugates containing Morpholino antisense oligonucleotides CK2a-1, CK2a-2 or CK2a-3.

fresh human RBCs = test: red blood cell (RBC) hemolysis assay (membrane disruptive activity); format: cell-based; conditions: pH 5.85 or pH 5.5; 2.5 nmol/10^8 RBCs; 1 h at 37° C.; absorbance of supernatant at 541 nm
Procedure: The fresh human RBCs were isolated by centrifugation of whole human blood at 2000 g for 5 min. The RBCs were washed three times with cold 100 mM sodium phosphate buffer of the desired pH (pH 5.85 or pH 5.5). The final pellet was resuspended in the same buffer to give a solution with […] RBCs per 1 ml. The polymers were dissolved in 100 mM dibasic sodium phosphate buffer at the desired pH at a concentration of 10 mg/ml. The polymer concentration was 2.5 nmol/10^8 RBCs. Hemolysis in distilled water was used to produce 100% lysis. RBCs in buffer with no polymer was used as reference controls. The hemolysis assay was performed by adding the polymer solution to the suspended RBCs in 1 ml of the appropriate buffer. The RBCs were mixed by inverting the tube several times, and incubated for 1 h in a 37° C. water bath. After incubation, the RBCs were centrifuged for […] at 13,500×g to sediment intact cells and the lysis was determined by measuring the absorbance of the supernatants at 541 nm which reflects the amount of hemoglobin released by the RBCs. The relative increase 100(A-Ao)/Atotal in absorbance at 541 nm wavelength of the cell-free supernatant was measured as an indicator of membrane rupture. […]

Substance	CK2 α chain expression, Western blot [1]	membrane disruptive activity (effect on RBC membranes) (fresh human RBCs)
CK2a-3: PMLA nanoconjugate containing Morpholino antisense oligonucleotide CK2a-3, SEQ ID NO: 5, CGGACAAAGCTGGACTTGATGTTT (all phosphorodiamidate morpholino (PMO); amine-modified morpholino conjugated to polymalic acid nanoconjugate carrier, further chemistry not fully specified)	reduction	
CK2a-2: PMLA nanoconjugate containing Morpholino antisense oligonucleotide CK2a-2, SEQ ID NO: 4, CCTGCTTGGCACGGGTCCCGACAT (all phosphorodiamidate morpholino (PMO); amine-modified morpholino conjugated to polymalic acid nanoconjugate carrier, further chemistry not fully specified)	reduction	
CK2a-1: PMLA nanoconjugate containing Morpholino antisense oligonucleotide CK2a-1, SEQ ID NO: 3, GATCTGGCAGTCACTGTGTTCAGAA (all phosphorodiamidate morpholino (PMO); amine-modified morpholino conjugated to polymalic acid nanoconjugate carrier, further chemistry not fully specified)	reduction	
PMLA/mAB OX-26/morpholino antisense oligonucleotide/L-valine/2-mercaptoethylamine/mPEG-NH2 conjugate [PMLA-PEG-Valine-AS-mAB]		infer membrane destabilization
PMLA/L-valine/2-mercaptoethylamine/mPEG-NH2 conjugate [PMLA-PEG-Valine]		infer membrane destabilization
